US20230355597A1, “COMPOUNDS, COMPOSITIONS, AND METHODS FOR THE TREATMENT AND PREVENTION OF AVIAN PATHOGENIC E. COLI (APEC)” (OHIO STATE INNOVATION FOUNDATION, priority 2018, published 2023)
Values after ≈ are worked out from the molar mass of the structure shown. Marks after values point to notes of the source that are not given here.

Columns and labels:
[1] = test system: biofilm embedded APEC O78; assay: MBEC High-throughput assay; assay type: cell-based, avian pathogenic Escherichia coli (APEC); settings: biofilm embedded APEC O78; superscript = multiple of MIC (footnote)
[2] = test system: intracellular APEC O2 in HD11 cells; assay: Intracellular survival assay (cidal SMs); settings: O2, HD11, 6 h treatment; superscript = multiple of MIC
[3] = test system: APEC O2-211; assay type: cell-based, avian pathogenic Escherichia coli (APEC); settings: APEC O2-211, M63 media; MIC/MBC
[4] = test system: APEC O78; assay type: cell-based, avian pathogenic Escherichia coli (APEC)
[5] = test system: APEC O15; assay type: cell-based, avian pathogenic Escherichia coli (APEC); settings: APEC O15, M63 media; MIC/MBC
[6] = test system: APEC O78; assay: Confocal microscopy bacterial cytological profiling; assay type: cell-based, avian pathogenic Escherichia coli (APEC); settings: 2X MBC
Protocol: Confocal and scanning electron microscopy. Confocal microscopy was used for bacterial cytological profiling (BCP) to identify the cellular pathways targeted by SMs as described previously. […] After incubation, treated cultures were centrifuged, washed, and resuspended in 100 μL PBS. […] Cultures were then centrifuged, washed, and resuspended in PBS to 1⁄10th volume of the original cultures.

[7] = test system: APEC O78; assay: Loss of 260/280 nm absorbing materials assay; assay type: cell-based, avian pathogenic Escherichia coli (APEC); settings: 2X MBC, 1 h, *P<0.05 vs DMSO
[8] = test system: APEC O18; assay type: cell-based, avian pathogenic Escherichia coli (APEC); settings: APEC O18, M63 media; MIC/MBC
[9] = test system: Shiga toxin-producing (STEC) O157 and O26 strains; assay type: cell-based, E. coli; settings: 100 µM, M63 media
[10] = test system: APEC O78-53; assay type: cell-based, avian pathogenic Escherichia coli (APEC); settings: APEC O78-53, M63 media; MIC/MBC
[11] = test system: intracellular APEC O1 in HD11 cells; assay: Intracellular survival assay (cidal SMs); settings: O1, HD11, 6 h treatment; superscript = multiple of MIC
[12] = test system: APEC O35; assay type: cell-based, avian pathogenic Escherichia coli (APEC); settings: APEC O35, M63 media; MIC/MBC
[13] = test system: intracellular APEC O78 in Caco-2 cells; assay: Intracellular survival assay (cidal SMs); settings: O78, Caco-2, 6 h treatment; superscript = multiple of MIC
[14] = test system: Rif^r APEC O78; assay: In vivo efficacy of growth inhibitors in APEC infected broiler chickens
[15] = test system: APEC O109; assay type: cell-based, avian pathogenic Escherichia coli (APEC); settings: APEC O109, M63 media; MIC/MBC
[16] = test system: APEC O8; assay type: cell-based, avian pathogenic Escherichia coli (APEC); settings: APEC O8, M63 media; MIC/MBC
[17] = test system: intracellular APEC O78 in THP-1 cells; assay: Intracellular survival assay (cidal SMs); settings: O78, THP-1, 6 h treatment; superscript = multiple of MIC
[18] = test system: intracellular APEC O2 in THP-1 cells; assay: Intracellular survival assay (cidal SMs); settings: O2, THP-1, 6 h treatment; superscript = multiple of MIC
[19] = test system: intracellular APEC O78 in HD11 cells; assay: Intracellular survival assay (cidal SMs); settings: O78, HD11, 6 h treatment; superscript = multiple of MIC
[20] = test system: intracellular APEC O1 in THP-1 cells; assay: Intracellular survival assay (cidal SMs); settings: O1, THP-1, 6 h treatment; superscript = multiple of MIC
[21] = test system: APEC O1; assay type: cell-based, avian pathogenic Escherichia coli (APEC); settings: APEC O1, M63 media; MIC/MBC
[22] = test system: intracellular APEC O1 in Caco-2 cells; assay: Intracellular survival assay (cidal SMs); settings: O1, Caco-2, 6 h treatment; superscript = multiple of MIC
[23] = test system: intracellular APEC O2 in Caco-2 cells; assay: Intracellular survival assay (cidal SMs); settings: O2, Caco-2, 6 h treatment; superscript = multiple of MIC
[24] = test system: APEC O2; assay type: cell-based, avian pathogenic Escherichia coli (APEC); settings: APEC O2, M63 media; MIC/MBC
[25] = test system: APEC O1-63; assay type: cell-based, avian pathogenic Escherichia coli (APEC); settings: APEC O1-63, M63 media; MIC/MBC
[26] = test system: APEC O115; assay type: cell-based, avian pathogenic Escherichia coli (APEC); settings: APEC O115, M63 media; MIC/MBC

COc1cc(CNCCc2ccc3ccccc3c2)ccc1OCC(O)CN1CCCC1 (stereo not shown) [SM2]
MBEC [1]: 50^b µM
SMs intracellular APEC clearance concentration [2]: 200^b µM
MBC [3]: 100 µM (≈ 43.5 µg/mL)
MIC [3]: 100 µM (≈ 43.5 µg/mL)
MBC relative to MIC ([4]; APEC O78): identical to MIC
MIC ([4]; APEC O78, M63 media, MIC/MBC): 100 µM (≈ 43.5 µg/mL)
MBC ([4]; APEC O78, M63 media, cell prints MIC/MBC): 100 µM (≈ 43.5 µg/mL)
MBC [5]: 100 µM (≈ 43.5 µg/mL)
MIC [5]: 100 µM (≈ 43.5 µg/mL)
cytological profile (confocal, FM4-64 / SYTO-9) [6]: membrane pore formers
Absorbance 260 ([7]; 260 nm absorbing material in supernatant): 3.71
Absorbance 280 ([7]; 280 nm absorbing material in supernatant): 2.86*
MBC [8]: 200 µM (≈ 86.9 µg/mL)
MIC [8]: 100 µM (≈ 43.5 µg/mL)
activity against STEC O157 and O26 strains [9]: not cidal
MBC [10]: 200 µM (≈ 86.9 µg/mL)
MIC [10]: 100 µM (≈ 43.5 µg/mL)
SMs intracellular APEC clearance concentration [11]: 200b µM
MBC [12]: 200 µM (≈ 86.9 µg/mL)
MIC [12]: 100 µM (≈ 43.5 µg/mL)
SMs intracellular APEC clearance concentration [13]: 100^a µM
reduction of average APEC load in internal organs ([14]; average of liver, heart, lung and kidney, vs untreated control): 1.3 logs
cumulative lesions score ([14]; liver, heart, lung and air-sacs, untreated 6.2): 5.4
reduction of APEC induced mortality ([14]; oral gavage twice a day, 5 days, untreated mortality (58.34%) normalized to 100%): 42.86%
reduction of APEC lesions severity (%), Air-sacs (airsacculitis) ([14]; untreated control = 100%): 17.7%
reduction of APEC lesions severity (%), Liver (perihepatitis) ([14]; untreated control = 100%): 0%
reduction of APEC load, Heart ([14]; vs untreated control): 0.8 log CFU/g of tissues
reduction of APEC load, Kidney ([14]; vs untreated control): 1.8 log CFU/g of tissues
reduction of APEC load, Liver ([14]; vs untreated control): 1.2 log CFU/g of tissues
reduction of APEC load, Lung ([14]; vs untreated control): 1.5 log CFU/g of tissues
Body weight gain (BWG) ([14]; weight of live chickens before necropsy minus weight before treatment): 125.48±34.66^b
MBC [15]: 200 µM (≈ 86.9 µg/mL)
MIC [15]: 100 µM (≈ 43.5 µg/mL)
MBC [16]: 200 µM (≈ 86.9 µg/mL)
MIC [16]: 100 µM (≈ 43.5 µg/mL)
SMs intracellular APEC clearance concentration [17]: 100^a µM
SMs intracellular APEC clearance concentration [18]: 100^a µM
SMs intracellular APEC clearance concentration [19]: 100^a µM
SMs intracellular APEC clearance concentration [20]: 200^b µM
MBC [21]: 250 µM (≈ 109 µg/mL)
MIC [21]: 200 µM (≈ 86.9 µg/mL)
SMs intracellular APEC clearance concentration [22]: >200 µM
SMs intracellular APEC clearance concentration [23]: >200 µM
MBC [24]: 250 µM (≈ 109 µg/mL)
MIC [24]: 200 µM (≈ 86.9 µg/mL)
MBC [25]: 250 µM (≈ 109 µg/mL)
MIC [25]: 200 µM (≈ 86.9 µg/mL)
MBC [26]: 200 µM (≈ 86.9 µg/mL)
MIC [26]: 200 µM (≈ 86.9 µg/mL)
